Laboratory results taken from PubChem BioAssay (NCI).
Where “and” joins values, the source holds several entries; their conditions need not be identical. Equal entries are not always repeated.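 All cell lines were grown in 96-well plates and treated with compound for 48 hours. Abbreviation: GI50, concentration required for 50% inhibition of growth. Definition used: TGI = concentration required for complete inhibition of growth.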

How the values were obtained:
Assay in all cases: NCI-60 cell line screen, 48 h
[1] = tested on: ACHN renal
[2] = tested on: HCT-15 colon
[3] = tested on: K-562 leukemia
[4] = tested on: MDA-MB-231 breast
[5] = tested on: OVCAR-5 ovarian
[6] = tested on: RPMI-8226 leukemia
[7] = tested on: SF-295 CNS
[8] = tested on: SK-OV-3 ovarian
[9] = tested on: SW-620 colon
[10] = tested on: U251 CNS

COC[C@H]1Cn2cc(-c3nc(Nc4ccnn4C)ncc3C)nc2C(=O)N1Cc1ccc(F)c(F)c1
GI50 [1]: 12.6 µM | TGI [1]: > 100 µM | GI50 [2]: 28.3 µM | TGI [2]: > 100 µM | GI50 [3]: 5.85 µM | TGI [3]: > 100 µM | GI50 [4]: 0.678 µM | TGI [4]: > 78.6 µM | GI50 [5]: 0.103 µM | TGI [5]: > 100 µM | GI50 [6]: 4.47 µM | TGI [6]: > 100 µM | GI50 [7]: > 100 µM | TGI [7]: > 100 µM | GI50 [8]: 35.9 µM | TGI [8]: > 100 µM | GI50 [9]: 0.156 µM | TGI [9]: > 100 µM | TGI [10]: > 100 µM

CC(=O)CC(OC(C)=O)C1=CCC2C(CC1C)OC(=O)C2C (centres undefined)
TGI [1]: > 100 µM | TGI [2]: > 100 µM | TGI [3]: > 100 µM | TGI [4]: > 100 µM | TGI [5]: > 100 µM | TGI [6]: > 100 µM | TGI [7]: > 100 µM | TGI [8]: > 100 µM | TGI [9]: > 100 µM | TGI [10]: > 100 µM

Cc1nnc(NC(=O)c2nc(S(=O)(=O)Cc3ccc(F)cc3)ncc2Cl)s1
GI50 [1]: 1.94 µM | TGI [1]: 3.68 µM | GI50 [2]: 1.84 µM | TGI [2]: 3.91 µM | GI50 [3]: 1.77 µM | TGI [3]: 4.52 µM | GI50 [4]: 1.78 µM | TGI [4]: 3.31 µM | GI50 [5]: 12.4 µM | TGI [5]: 25.4 µM | GI50 [6]: 2.21 µM | TGI [6]: 12.8 µM | GI50 [7]: 15.9 µM | TGI [7]: 30.7 µM | GI50 [8]: 17.9 µM | TGI [8]: 32 µM | GI50 [9]: 1.51 µM | TGI [9]: 3.25 µM | GI50 [10]: 4.12 µM | TGI [10]: 15.5 µM

O=C(CCCSc1nc(-c2ccccc2)cc(-c2ccccc2)n1)NO
GI50 [1]: 0.358 µM | TGI [1]: 1.5 µM | GI50 [2]: 0.408 µM | TGI [2]: 11.8 µM | GI50 [3]: 0.983 µM | TGI [3]: 18.9 µM | GI50 [4]: 1.99 µM | TGI [4]: 7.72 µM | GI50 [5]: 1.37 µM | TGI [5]: 5.64 µM | GI50 [6]: 0.808 µM | TGI [6]: 9.38 µM | GI50 [7]: 2.17 µM | TGI [7]: 6.98 µM | GI50 [8]: 1.94 µM | TGI [8]: 5.57 µM | GI50 [9]: 0.777 µM | TGI [9]: 12.7 µM | GI50 [10]: 1.24 µM | TGI [10]: 3.2 µM

CCOC(=S)SCC(=O)O
TGI [1]: > 100 µM | TGI [2]: > 100 µM | TGI [3]: > 100 µM | TGI [4]: > 100 µM | TGI [5]: > 100 µM | TGI [6]: > 100 µM | TGI [7]: > 100 µM | TGI [8]: > 100 µM | TGI [9]: > 100 µM | TGI [10]: > 100 µM

Cc1ccc(-n2c3nc(=O)[nH]c(=O)c-3cc3cc([N+](=O)[O-])ccc32)cc1
GI50 [1]: 38.1 µM | TGI [1]: > 100 µM | GI50 [2]: 25.5 µM | TGI [2]: > 100 µM | GI50 [3]: 33.4 µM | TGI [3]: > 100 µM | GI50 [4]: 17.8 µM | TGI [4]: 44.2 µM | GI50 [5]: 21.1 µM | TGI [5]: 50.2 µM | GI50 [6]: 3.95 µM | TGI [6]: 21.3 µM | GI50 [7]: 15.9 µM | TGI [7]: 37.3 µM | GI50 [8]: 37.1 µM | TGI [8]: > 100 µM | GI50 [9]: 4.71 µM | TGI [9]: > 100 µM | GI50 [10]: 5.14 µM | TGI [10]: > 100 µM

c1ccc(Sc2ncnc3ccccc23)cc1
GI50 [1]: 11 µM | TGI [1]: 31.6 µM | GI50 [2]: 8.03 µM | TGI [2]: 37.2 µM | GI50 [3]: 9.72 µM | TGI [3]: > 100 µM | GI50 [4]: 13.5 µM | TGI [4]: 49.9 µM | GI50 [5]: 19.2 µM | TGI [5]: 37.2 µM | GI50 [6]: 9.49 µM | TGI [6]: 37.6 µM | GI50 [7]: 14.2 µM | TGI [7]: 45.6 µM | GI50 [8]: 22.1 µM | TGI [8]: 49.6 µM | GI50 [9]: 14.6 µM | TGI [9]: 34.8 µM | GI50 [10]: 12.9 µM | TGI [10]: 31.8 µM

CC1(COc2ccc3c(c2)ncn3-c2ccc3cccc(N4CCC(N)CC4)c3n2)COC1
GI50 [1]: 2.61 µM and 2.24 µM | TGI [1]: > 10 µM | GI50 [2]: 3.37 µM and 2.92 µM | TGI [2]: 12.3 µM and > 10 µM | GI50 [3]: 2.1 µM and 1.94 µM | TGI [3]: 8.36 µM and 8.92 µM | GI50 [4]: 2.55 µM and 1.88 µM | TGI [4]: 8.69 µM and 7.63 µM | GI50 [5]: 3.26 µM and 2.57 µM | TGI [5]: 12.8 µM and > 10 µM | GI50 [6]: 2.08 µM and 1.88 µM | TGI [6]: 5.29 µM and 5.21 µM | GI50 [7]: 5.75 µM and 2.88 µM | TGI [7]: 19.4 µM and > 10 µM | GI50 [8]: 15.5 µM and > 10 µM | TGI [8]: 29.2 µM and > 10 µM | GI50 [9]: 3.09 µM and 2.52 µM | TGI [9]: 11 µM and > 10 µM | GI50 [10]: 1.7 µM and 1.87 µM | TGI [10]: 4.09 µM and 5.66 µM

CCn1c(-c2nonc2N)nc2c(C#CC(C)(C)O)nc(OC[C@@H](N)c3ccccc3)cc21
GI50 [1]: 4.17 µM | TGI [1]: 9.42 µM | GI50 [2]: 5.78 µM | TGI [2]: 21.1 µM | GI50 [3]: 5.19 µM | TGI [3]: 14.1 µM | GI50 [4]: 4.68 µM | TGI [4]: 8.86 µM | GI50 [5]: 7.92 µM | TGI [5]: 15.1 µM | GI50 [6]: 6.51 µM | TGI [6]: 15.5 µM | GI50 [7]: 4.59 µM | TGI [7]: 9.63 µM | GI50 [8]: 4.16 µM | TGI [8]: 9.47 µM | GI50 [9]: 4.58 µM | TGI [9]: 9.5 µM | GI50 [10]: 3.98 µM | TGI [10]: 7.63 µM

N#Cc1c[nH]n2c(N=Nc3ccc(Cl)cc3)c(O)nc12
GI50 [1]: 24.7 µM | TGI [1]: 62 µM | GI50 [2]: 22 µM | TGI [2]: 62.9 µM | GI50 [3]: 26.4 µM | TGI [3]: > 100 µM | GI50 [4]: 16.2 µM | TGI [4]: > 100 µM | GI50 [5]: 84.9 µM | TGI [5]: > 100 µM | GI50 [6]: 25.7 µM | TGI [6]: 95.3 µM | GI50 [7]: 30.1 µM | TGI [7]: > 100 µM | GI50 [8]: 37 µM | TGI [8]: > 100 µM | GI50 [9]: 47.9 µM | TGI [9]: > 100 µM | GI50 [10]: 35.6 µM | TGI [10]: > 100 µM

C[C@]12CCC3c4ccc(O)cc4CCC3C1CC[C@@]2(O)CNC(=O)/C=C/c1ccc(O)c(O)c1 (some centres undefined)
GI50 [1]: 2.41 µM | TGI [1]: 6.14 µM | GI50 [2]: 4.33 µM | TGI [2]: 16.8 µM | GI50 [3]: 3.38 µM | TGI [3]: 12.6 µM | GI50 [4]: 3.58 µM | TGI [4]: 16.4 µM | GI50 [5]: 25.1 µM | TGI [5]: 46.9 µM | GI50 [6]: 8.56 µM | TGI [6]: 50.7 µM | GI50 [7]: 4.07 µM | TGI [7]: 22.1 µM | GI50 [8]: 16.7 µM | TGI [8]: 34.5 µM | GI50 [9]: 9.36 µM | TGI [9]: 27.2 µM | GI50 [10]: 3.02 µM | TGI [10]: 10.6 µM

O=C(/C(=C/c1ccc([N+](=O)[O-])cc1)SCc1ccccc1)c1ccc(Cl)cc1
GI50 [1]: 1.97 µM | TGI [1]: 4.16 µM | GI50 [2]: 2.14 µM | TGI [2]: 5.41 µM | GI50 [3]: 2.65 µM | TGI [3]: > 100 µM | GI50 [4]: 2.67 µM | TGI [4]: 10.2 µM | GI50 [5]: 2.98 µM | TGI [5]: 11.9 µM | GI50 [6]: 1.78 µM | TGI [6]: 5.03 µM | GI50 [7]: 5.54 µM | TGI [7]: 18.9 µM | GI50 [8]: 14.4 µM | TGI [8]: 36.4 µM | GI50 [9]: 1.83 µM | TGI [9]: 4.15 µM | GI50 [10]: 1.88 µM | TGI [10]: 4.09 µM

O=C1CCCCN1c1ccccc1C#C/C=C\C#Cc1ccccc1C(F)(F)F
GI50 [1]: 2.67 µM | TGI [1]: 14.7 µM | GI50 [2]: 1.53 µM | TGI [2]: 6.05 µM | GI50 [3]: 1.46 µM | TGI [3]: 8.65 µM | GI50 [4]: 1.16 µM | TGI [4]: 2.71 µM | GI50 [5]: 3.35 µM | TGI [5]: > 50 µM | GI50 [6]: 1.9 µM | TGI [6]: 6.71 µM | GI50 [7]: 1.11 µM | TGI [7]: 3.16 µM | GI50 [8]: > 50 µM | TGI [8]: > 50 µM | GI50 [9]: 2.04 µM | TGI [9]: 46 µM | GI50 [10]: 1.52 µM | TGI [10]: 5.26 µM

COCCOc1ccc(-c2nc3ccc(-c4nc5ccc(N6CCN(C)CC6)cc5[nH]4)cc3[nH]2)cc1
GI50 [1]: 10.7 µM | TGI [1]: > 100 µM | GI50 [2]: 38.7 µM | TGI [2]: > 100 µM | GI50 [3]: 0.911 µM | TGI [3]: > 100 µM | GI50 [4]: 2.25 µM | TGI [4]: 6.49 µM | GI50 [5]: 3.59 µM | TGI [5]: 9.97 µM | GI50 [6]: 4.11 µM | TGI [6]: 35.5 µM | GI50 [7]: 1.38 µM | TGI [7]: 15.7 µM | GI50 [8]: 2.7 µM | TGI [8]: 15.6 µM | GI50 [9]: 0.9 µM | TGI [9]: 4.59 µM | GI50 [10]: 0.659 µM | TGI [10]: 10.2 µM

Cc1csc(-c2nnc(Nc3ccc(Oc4ncccc4-c4ccnc(N)n4)cc3)c3ccccc23)c1
GI50 [1]: 2.11 µM | TGI [1]: > 100 µM | GI50 [2]: 1.78 µM | TGI [2]: > 100 µM | GI50 [3]: 3.15 µM | TGI [3]: > 100 µM | GI50 [4]: 4.32 µM | TGI [4]: > 100 µM | GI50 [5]: > 100 µM | TGI [5]: > 100 µM | GI50 [6]: 3.05 µM | TGI [6]: > 100 µM | GI50 [7]: 2.98 µM | TGI [7]: > 100 µM | GI50 [8]: > 100 µM | TGI [8]: > 100 µM | GI50 [9]: 0.651 µM | TGI [9]: > 100 µM | GI50 [10]: > 100 µM | TGI [10]: > 100 µM
